# From article PMC6515058 (International Journal of Molecular Sciences, 2019)
# Like-named read-outs stand apart in the source and are kept apart here.
# Experiments:
# [1] = system: chicken P-gp; experiment: Bidirectional transport of veterinary drugs across MDCK-chAbcb1 cell monolayer with berberine; conditions: for efflux ratio at 20 μM: chicken
# Experimental: (§1) The MDCK-chAbcb1 cell line stably expressing chicken P-gp was previously established in our laboratory. Briefly, the full-length chicken cDNA was first cloned into the pcDNA3.1 vector and then transfected into MDCK cells using Lipofectamine 2000. Single cells stably expressing chicken P-gp were collected using the limited dilution method in medium containing hygromycin B (100 μg/mL) to obtain the MDCK-chAbcb1 cell line. The cell line was cultured in Dulbecco’s modified Eagle’s medium containing 10% fetal bovine serum, antibiotics (100 IU/mL penicillin and 80 IU/mL streptomycin), and 50 μg/mL hygromycin B and incubated at 37 °C in humidified air with 5% CO2.
# Then, the samples collected from the receiving sides were subjected to an HPLC analysis. Of note, the transport periods for all of the drugs were determined by a preliminary experiment to avoid the saturation of P-gp.
# The apparent permeability coefficients (Papp) and the efflux ratio (ER) were calculated as follows:(3) Papp=dQ/dt×1/(A×Co) (4) ER=Papp(B→A)/Papp(A→B)
# (§2) In the third equation, A is the membrane surface area of the filter, C0 is the initial concentration of the test drug, dQ is the amount of transported drug, and dt is the time elapsed. In the fourth equation, Papp B→A and Papp A→B are the apparent permeability coefficients for the basolateral-to-apical and apical-to-basolateral directions, respectively.
# [2] = system: Abcb1 mRNA; experiment: Abcb1 mRNA expression in the ileum of broilers by real-time RT-PCR after oral berberine; assay type: in vivo; conditions: berberine 40 and 80 mg/kg, 24 h, vs control, p < 0.01
# Experimental: (§3) Arbor Acres broilers (one day old) were purchased from the Liuhe Hatchery (Nanjing, Jiangsu, China). The broilers were provided a basal diet and water ad libitum and managed under the recommended humidity and temperature for 6 weeks. Then, 18 healthy broilers with similar body weight (b.w.) were randomly divided into three groups (6 broilers/group). Group I was administered phosphate-buffered saline for 24 h (control).
# GAPDH was used as an internal control.
# [3] = system: chicken xenobiotic receptor (CXR) mRNA; experiment: CXR mRNA expression in the ileum of broilers by real-time RT-PCR after oral berberine; assay type: in vivo; conditions: berberine 40 and 80 mg/kg, 24 h, vs control, p < 0.01
# Experimental: Arbor Acres broilers (one day old) were purchased from the Liuhe Hatchery (Nanjing, Jiangsu, China). The broilers were provided a basal diet and water ad libitum and managed under the recommended humidity and temperature for 6 weeks. Then, 18 healthy broilers with similar body weight (b.w.) were randomly divided into three groups (6 broilers/group). Group I was administered phosphate-buffered saline for 24 h (control). […] Chicken treatment procedures were approved by the Science and Technology Agency of Jiangsu Province (approval no. 2017-0007, approval date: 15th, February, 2017) and performed in accordance with the guidelines of the Science and Technology Agency of Jiangsu Province and Nanjing Agricultural University. Broilers were divided into three experimental groups and drugs were administered as described above. At the end of experiments, animals were killed by decapitation. The ileum samples were collected immediately and stored at −80 °C for further tests. […] RNAs were quantified using a photometer (Eppendorf, Hamburg, Germany) at 260/280 nm. […] Chicken Abcb1 and chicken xenobiotic receptor (CXR) mRNAs were quantified using SYBR Green Realtime PCR Master Mix (Toyobo, Japan) on a real-time PCR detection system (Bio-Rad Laboratories, Hercules, CA, USA). […] Relative levels of Abcb1 and CXR were analyzed using the 2^−ΔΔCt method.
# [4] = system: chicken P-gp; experiment: Bidirectional transport of berberine across MDCK-chAbcb1 cell monolayer; assay type: in vitro ADME; conditions: for efflux ratio at 4 h, 100 μM: chicken
# [5] = Bidirectional transport of berberine across MDCK parental cell monolayer; assay type: in vitro ADME; conditions: dog
# [6] = design: method as in data published in a Chinese journal, Figure S3; conditions: broilers, berberine co-administration; ref data published in a Chinese journal, Figure S3; cited from earlier work
# [7] = system: chicken P-gp; experiment: Bidirectional transport of Rho123 across MDCK-chAbcb1 cell monolayer (P-gp inhibition); assay type: cell-based; conditions: for Papp A→B at 80 min, 4 mM: read-out: Papp AP→BL of Rho123
# Experimental: as §1
# The samples were collected at 20, 40, 60, and 80 min from the receiving sides and analyzed by HPLC.
# as §2
# The inhibition rate was calculated using the following equation:(5) Inhibition rate=ERcontrol−ERtreatment/ERcontrol
# [8] = system: chicken intestinal P-gp; experiment: In situ single-pass intestinal perfusion of Rho123 in berberine-treated broilers; assay type: in vivo
# Experimental: as §3
# The broilers were divided into three experimental groups and drugs were administered as described above. Broilers were fasted for 12 h with free access to water before the perfusion experiment. Then, the animals were anesthetized with urethane intraperitoneally (0.5 mL/kg b.w.) and an incision was made through the abdominal cavity. A 10-cm intestinal segment was carefully exposed to air for intestinal perfusion. Two polyethylene cannulas were inserted through small slits at the proximal and distal ends (inlet and outlet). Initially, the intestinal segment was gently flushed with Krebs-Ringer buffer for about 30 min until a clear effluent flowed out. Then, Rho123 (1.5 ng/mL) solution was introduced into the loop at a constant flow rate of 0.2 mL/min. The intestinal fluid was collected in bottles at the outlet of the intestine at intervals of 10 min for up to 100 min. The lengths and internal radii of the intestinal segments were measured after all of the chickens were killed by cervical dislocation.
# All samples were weighed and centrifuged for 10 min at 4500 rpm. The supernatants were filtered using a 0.22-μm filter (Millipore, Burlington, MA, USA) and samples were collected for analysis by high-performance liquid chromatography (HPLC).
# [9] = chicken, control of 8 h series, no berberine
smiles,measurement,setting,value
CCN1CCN(c2cc3c(cc2F)c(=O)c(C(=O)O)cn3C2CC2)CC1 [enrofloxacin],efflux ratio at 20 μM,[1],2.01
COc1ccc2cc3[n+](cc2c1OC)CCc1cc2c(cc1-3)OCO2 [berberine],Abcb1 mRNA level in the ileum,[2],significantly down-regulated
same,CXR mRNA level in the ileum,[3],significantly down-regulated
same,Transport ratio (r) of berberine,"[4]; MDCK-chAbcb1 cells, without verapamil, berberine 100 μM, 4 h",4.2
same,"efflux ratio at 4 h, 100 μM",[4],4.2
same,"efflux ratio at 4 h, 100 μM",[4]; with verapamil 100 μM,1.13
same,ER of sulfadiazine,"[1]; berberine 20 μM, 2 h pre-incubation, sulfadiazine 20 μM",did not obviously alter the ER
same,"efflux ratio at 4 h, 100 μM",[5],1.24
same,"efflux ratio at 4 h, 100 μM",[5]; with verapamil 100 μM,1.21
same,Bioavailability of orally administered enrofloxacin,[6],increases the bioavailability
same,Inhibition rate (of Rho123 efflux ratio),"[7]; berberine 5 μM, 2 h",41.48%
same,Inhibition rate (of Rho123 efflux ratio),"[7]; berberine 5 μM, 8 h",39.64%
same,Inhibition rate (of Rho123 efflux ratio),"[7]; berberine 20 μM, 2 h",53.3%
same,Inhibition rate (of Rho123 efflux ratio),"[7]; berberine 20 μM, 2 h, listed as Berberine",53.30%
same,Inhibition rate (of Rho123 efflux ratio),"[7]; berberine 20 μM, 8 h",62.57%
same,Inhibition rate (of Rho123 efflux ratio),"[7]; berberine 40 μM, 2 h",73.6%
same,Inhibition rate (of Rho123 efflux ratio),"[7]; berberine 40 μM, 2 h, listed as Berberine",73.63%
same,Inhibition rate (of Rho123 efflux ratio),"[7]; berberine 40 μM, 8 h",68.23%
same,Rho123 concentrations in the perfusion fluid,"[8]; berberine 40 and 80 mg/kg, 24 h, vs control, p < 0.05",obvious decrease
Nc1ccc(S(=O)(=O)Nc2ncccn2)cc1 [sulfadiazine],efflux ratio at 20 μM,[1],2.77
"COC(=O)c1ccccc1-c1c2ccc(=N)cc-2oc2cc(N)ccc12 [Rho123, rhodamine 123]","efflux ratio at 2 h, 4 mM","[7]; chicken, control of 2 h series, no berberine, read-out: Efflux ratio of Rho123",7.28 ± 0.98
same,"Papp A→B at 80 min, 4 mM","[7]; chicken, control of 2 h series, no berberine",8.86 ± 1.38 ×10⁻⁶ cm/s
same,"Papp B→A at 2 h, 4 mM","[7]; chicken, control of 2 h series, no berberine, read-out: Papp BL→AP of Rho123",62.9 ± 7.69 ×10⁻⁶ cm/s
same,"efflux ratio at 8 h, 4 mM",[7]; [9],7.24 ± 0.49
same,"Papp A→B at 80 min, 4 mM",[7]; [9],8.62 ± 1.24 ×10⁻⁶ cm/s
same,"Papp B→A at 8 h, 4 mM","[7]; chicken, control of 8 h series, no berberine, read-out: Papp BL→AP of Rho123",60.1 ± 5.13 ×10⁻⁶ cm/s
same,"efflux ratio at 2 h, 4 mM","[7]; chicken, control of verapamil series, verapamil 0 µM, read-out: Efflux Ratio of rhodamine 123",6.24 ± 0.7
same,"Papp A→B at 2 h, 4 mM","[7]; chicken, control of verapamil series, verapamil 0 µM, read-out: Papp AP→BL of rhodamine 123",8.04 ± 0.76 ×10⁻⁶ cm/s
same,"Papp B→A at 2 h, 4 mM","[7]; chicken, control of verapamil series, verapamil 0 µM, read-out: Papp BL→AP of rhodamine 123",54.4 ± 4.34 ×10⁻⁶ cm/s
same,"Papp at 100 min, 1.5 ng/mL","[8]; Arbor Acres, chicken, other: in situ single-pass intestinal perfusion",123 ± 42 ×10⁻⁶ cm/s
same,Ka of Rho123,"[8]; control (no berberine), in situ perfusion, n = 6",1.12 ± 0.28 min⁻¹
CC[C@H]1OC(=O)C[C@@H](O)[C@H](C)[C@@H](O[C@@H]2O[C@H](C)[C@@H](O)[C@H](N(C)C)[C@H]2O)[C@@H](CCN2C[C@H](C)C[C@H](C)C2)C[C@@H](C)C(=O)/C=C/C(C)=C/[C@@H]1CO[C@@H]1O[C@H](C)[C@@H](O)[C@@H](OC)[C@H]1OC [tilmicosin],efflux ratio at 20 μM,[1],4.26
